{"source": "paper PMC10843894", "about": "(Cell and tissue research, 2011)", "key": {"[1]": {"system": "plasma membrane Ca^2+ channels", "type": "cell-based, rat"}, "Th gene": {"system": "Th gene", "conditions": "cited from earlier work; for transcription of Th (PACAP and VIP, literature): porcine/bovine chromaffin cells, PC12 cells, CATH.a cells, ref Isobe et al. 1996, Park et al. 1999, Tonshoff et al. 1997, Corbitt et al. 1998, 2002, Yukimasa et al. 1999, Muller et al. 1997"}, "VPAC1": {"target": "T1, VPAC1 (Rattus norvegicus, UniProt P30083)", "T1 sequence (P30083 31-459)": "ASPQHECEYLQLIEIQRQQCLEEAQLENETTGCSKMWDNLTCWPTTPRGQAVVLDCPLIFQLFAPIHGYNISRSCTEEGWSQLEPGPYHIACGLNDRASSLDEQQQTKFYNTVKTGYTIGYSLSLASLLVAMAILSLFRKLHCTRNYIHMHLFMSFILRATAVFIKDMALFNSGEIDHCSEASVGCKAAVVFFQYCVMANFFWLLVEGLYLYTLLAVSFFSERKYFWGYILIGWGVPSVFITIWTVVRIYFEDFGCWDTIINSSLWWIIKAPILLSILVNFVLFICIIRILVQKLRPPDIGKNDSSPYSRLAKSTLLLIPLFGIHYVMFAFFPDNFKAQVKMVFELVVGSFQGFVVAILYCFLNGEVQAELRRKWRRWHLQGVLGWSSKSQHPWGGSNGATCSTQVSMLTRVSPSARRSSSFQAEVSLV", "assay": "Blockade of secretin-induced Th transcription by VPAC1 antagonist", "conditions": "pre-treatment before secretin 0.1 μM (Fig. 1d)"}, "PLC-β": {"system": "PLC-β", "assay": "Inhibition of secretin-evoked catecholamine secretion by PLC-β blockade", "type": "cell-based, rat", "conditions": "secretin 8 μM, 20 min"}, "phospholipase C": {"system": "phospholipase C", "conditions": "U-73122 20 μM, secretin 8 μM, 0.5 min"}, "PAC1 receptor": {"system": "PAC1 receptor", "assay": "PAC1 receptor agonism inferred from secretion concentrations", "type": "cell-based", "conditions": "inferred from secretion findings"}, "cAMP in PC12 cells": {"system": "cAMP in PC12 cells", "conditions": "cited from earlier work"}, "catecholamine secretion": {"system": "catecholamine secretion", "conditions": "cited from earlier work"}, "SCTR": {"system": "SCTR", "assay": "Inhibition of secretin-induced catecholamine secretion by SCTR antagonist", "type": "cell-based, rat", "conditions": "antagonist up to 20 μM, secretin 6 μM, 30 min"}, "[2]": {"system": "plasma membrane Ca^2+ channels", "type": "cell-based, rat", "conditions": "ZnCl2 100 μM; data not shown"}, "intracellular Ca^2+": {"system": "intracellular Ca^2+", "assay": "Secretin-induced catecholamine secretion with intracellular Ca2+ chelator", "type": "cell-based, rat", "conditions": "BAPTA-AM 50 μM pre-treatment 30 min; secretin 8 μM, 20 min, Ca2+-free buffer + 0.5 mM EGTA"}}, "note": "Ends that are not written are not given here.", "data": [{"molecule": "ω-agatoxin", "values": [{"measurement": "effect of Ca2+ channel inhibitors on secretin-induced catecholamine secretion", "setting": "[1]", "result": "little to no effect"}]}, {"molecule": "VIP6–28: VPAC1 (VIP6–28) antagonist (FTDNYTRLRKQMAVKKYLNSILN; ends and bridges not checked; UniProt P01282 130-152, looked up, fragment)", "values": [{"measurement": "effect of VPAC1 antagonist on Th gene expression induced by secretin or PHI", "setting": "Th gene; ref Wessels-Reiker et al. 1993", "result": "no significant effect"}, {"measurement": "effect of VPAC1 antagonist on VIP-increased Th mRNA", "setting": "Th gene; ref Wessels-Reiker et al. 1993", "result": "lowers the effect of VIP on increasing Th mRNA"}, {"measurement": "effect on secretin-induced transcription of Th gene, VPAC1 antagonist", "setting": "VPAC1", "result": "Failure"}]}, {"molecule": "ω-conotoxin GVIA", "values": [{"measurement": "effect of Ca2+ channel inhibitors on secretin-induced catecholamine secretion", "setting": "[1]", "result": "little to no effect"}]}, {"molecule": "COc1ccc2c(c1)CC[C@@H]1[C@@H]2CC[C@]2(C)[C@@H](NCCCCCCN3C(=O)C=CC3=O)CC[C@@H]12", "note": "[U73122]", "values": [{"measurement": "inhibition of secretin-evoked catecholamine secretion by PLC-β inhibitor", "setting": "PLC-β; U-73122 10 μM", "result": "~ 54%"}, {"measurement": "inhibition of IP3 levels by PLC blockade", "setting": "phospholipase C", "result": "~ 61%"}]}, {"molecule": "ω-conotoxin MVIIC", "values": [{"measurement": "effect of Ca2+ channel inhibitors on secretin-induced catecholamine secretion", "setting": "[1]", "result": "little to no effect"}]}, {"molecule": "Vasoactive intestinal polypeptide [VIP]", "values": [{"measurement": "agonism at PAC1 receptor", "setting": "PAC1 receptor", "result": "poor agonists for the PAC1 receptor"}, {"measurement": "intracellular cAMP levels in chromaffin cells (literature), VIP", "setting": "cAMP in PC12 cells; ref Anderova et al. 1998", "result": "elevated"}, {"measurement": "transcription of Th (PACAP and VIP, literature)", "setting": "Th gene", "result": "augment the transcription of Th"}, {"measurement": "concentration achieving significant catecholamine secretion (VIP)", "setting": "catecholamine secretion; ref Guo and Wakade 1994, Wakade et al. 1991", "result": 300, "unit": "nM"}, {"measurement": "source of Ca2+ for VIP-induced catecholamine secretion", "setting": "catecholamine secretion; ref Malhotra et al. 1988", "result": "depends solely upon Ca^2+ mobilization from intracellular stores"}]}, {"molecule": "COc1ccc2c(c1)CC[C@@H]1[C@@H]2CC[C@]2(C)[C@@H](NCCCCCCN3C(=O)CCC3=O)CC[C@@H]12", "note": "[U-73343]", "values": [{"measurement": "effect of inactive isomer on secretin-induced secretion", "setting": "PLC-β; U-73343 10 μM", "result": "did not affect secretin-induced secretion"}]}, {"molecule": "secretin5–27: SCTR antagonist (secretin5–27) (TFTSELSRLREGARLQRLLQGLV; ends and bridges not checked; UniProt P09683 32-54, looked up, fragment)", "values": [{"measurement": "effect of SCTR antagonist on secretin-induced secretion", "setting": "SCTR", "result": "failed to inhibit secretion"}, {"measurement": "effect of SCTR antagonist on VIP- or PHI-induced Th gene expression", "setting": "Th gene; ref Wessels-Reiker et al. 1993", "result": "no significant effect"}, {"measurement": "effect of SCTR antagonist on secretin-induced Th gene expression (literature)", "setting": "Th gene; ref Wessels-Reiker et al. 1993", "result": "reduces the effect of secretin"}]}, {"molecule": "[Cl-].[Cl-].[Zn+2]", "note": "[ZnCl2]", "values": [{"measurement": "effect of non-specific Ca2+ channel blockade on secretin-induced secretion", "setting": "[1]; ZnCl2 100 μM, secretin 8 μM, 20 min", "result": "ineffective"}, {"measurement": "block of PACAP-induced catecholamine secretion", "setting": "[2]", "result": "completely blocked"}]}, {"molecule": "Pituitary adenylyl cyclase activating polypeptide [PACAP]", "values": [{"measurement": "intracellular cAMP levels in chromaffin cells (literature), PACAP", "setting": "cAMP in PC12 cells; ref Hamelink et al. 2002", "result": "elevated"}, {"measurement": "transcription of Th (PACAP and VIP, literature)", "setting": "Th gene", "result": "augment the transcription of Th"}, {"measurement": "concentration achieving significant catecholamine secretion (PACAP)", "setting": "catecholamine secretion; ref Chowdhury et al. 1994, Przywara et al. 1996", "result": 10, "unit": "nM"}, {"measurement": "prolonged catecholamine secretion, PACAP (literature)", "setting": "catecholamine secretion; ref Taupenot et al. 1999", "result": "long-lasting"}]}, {"molecule": "CN1CCC[C@H]1c1cccnc1", "note": "[nicotine]", "values": [{"measurement": "prolonged catecholamine secretion, nicotine (literature)", "setting": "catecholamine secretion; ref Hamelink et al. 2002", "result": "does not cause prolonged catecholamine secretion"}]}, {"molecule": "CC(=O)OCOC(=O)CN(CC(=O)OCOC(C)=O)c1ccccc1OCCOc1ccccc1N(CC(=O)OCOC(C)=O)CC(=O)OCOC(C)=O", "note": "[BAPTA-AM]", "values": [{"measurement": "effect of BAPTA-AM on secretin-induced catecholamine secretion", "setting": "intracellular Ca^2+", "result": "completely abolished"}]}]}
